Experimental data reported in US5049560A, “Sulfonyl derivatives of thieno-triazolo-diazepines useful as anti-PAF and anti-ischemic agents” (priority 1989, dated 1991).

What was measured:
Solubility = type: physicochemical
Procedure: Yield 38 g (85%) of an orange powder melting at 80° C. (Tottoli) insoluble in water at room temperature but soluble in DMSO.

[1] = test system: platelet aggregation induced by PAF; assay: Inhibition of platelet aggregation induced by PAF; type: cell-based, New Zealand rabbits; conditions: Oryctolagus cuniculus, rabbit platelets, aggregometer at 57° C. [sic]
Procedure: 1) Inhibition of platelet aggregation induced by PAF
This experimentation was conducted according to the method of R. KINLOUGH. RATHBONE, J. P. CAZENAVE, M. PACKHAM and F. MUSTARD, Lab. Invest. 48, 98, 1980. In this test, New Zealand rabbits were used (male New Zealand rabbits of an average weight of 5 kg).
The determinations are made on a chrono-log Coultronics aggregometer, at […] coupled with a graphic recorder; the results of these determinations (in molecular concentration) are reported on the table I on the central column.

Toxicity on mice = conditions: mouse, in vivo, IP
Text: None of these compounds of this invention was toxic per os at dose of 1 g/kg on mice.
None of the compounds was toxic IP at the dose of 1 g/kg on mice with the exception of the examples 1, 5 and 10 for which the LD 50 was comprised between 0.5 and 1 g/kg.

omega 3 sites = assay: Global ischemia on gerbils; type: in vivo, gerbil; conditions: Meriones unguiculatus, 168 h; both carotides clamped 10 minutes; hippocampes taken one week later; 3H-PK 11195 2 nM; compared to control; significance marks (*, **, ***, NS) given; read-out: Global protection in %
Procedure: 3) Global ischemia on gerbils
For this test, males gerbilles were anaesthetized with brietal at the doses of 35 mg/kg IP; thereafter, both carotides were clamped for 10 minutes, then the clamping was released. Treated animals received each 10 mg/kg of the compounds of one of the examples.
One week later, the animals were killed and both hippocampes were taken, weighed and frozen at -80° C.
After crushing with 1 ml of TRIS-HCl buffer pH 7.4 for 30 secondes, aliquots of each 50 μl of this preparation were incubed in each 1 ml of TRIS-HCl buffer containing ^3 H-PK 11195 at 2 nM (90 Ci/mmole, NENE, Germany) for 1 hour at 25° C. For each preparation, 3 determinations were made. The density of omega 3 sites (marked by the specific ^3 H PK 11195 marker) are expressed in f-moles of PK 11195/mg of fresh tissues and converted in percentage of protection compared to control.

Structure (SMILES) | solubility in DMSO (Solubility; DMSO) | solubility in water (Solubility; water, room temperature) | IC50 [1] [nM] | LD50 (Toxicity on mice) [mg/kg] | inhibition in vivo at 10 mg/kg (omega 3 sites) [%]
CCCCCCCCCCCCCCCCS(=O)(=O)N1CCc2c(sc3c2C(c2ccccc2Cl)=NCc2nnc(C)n2-3)C1 [Example 1, 6-(2-chlorophenyl)-9-hexadecylsulphonyl-7,8,9,10-tetrahydro-1-methyl 4H-pyrido [4',3':4,5] thieno [3,2-f] 1,2,4-triazolo [4,3-a] 1,4-diazepine] | soluble | insoluble | 96.3 | 500 to 1000 | –
Cc1nnc2n1-c1sc3c(c1C(c1ccccc1Cl)=NC2)CCN(S(=O)(=O)c1ccccc1)C3 [Example 2, 6-(2-chlorophenyl)-9-phenylsulphonyl-7,8,9,10-tetrahydro-1-methyl 4H-pyrido [4',3':4,5] thieno [3,2-f] 1,2,4-triazolo [4,3-a] 1,4-diazepine] | – | – | 225 | – | 38.3
Cc1nnc2n1-c1sc3c(c1C(c1ccccc1Cl)=NC2)CCN(S(=O)(=O)c1c(Cl)cc(Cl)cc1Cl)C3 [Example 3, 6-(2-chlorophenyl)-9-(2,4,6-trichloro)phenylsulphonyl-7,8,9,10-tetrahydro-1-methyl 4H-pyrido [4',3':4,5] thieno [3,2-f] 1,2,4-triazolo [4,3-a] 1,4-diazepine] | – | – | 37.1 | – | 33.3
Cc1nnc2n1-c1sc3c(c1C(c1ccccc1Cl)=NC2)CCN(S(=O)(=O)c1ccc(C(F)(F)F)cc1)C3 [Example 4, 6-(2-chlorophenyl)-9-(trifluoromethyl)phenylsulphonyl-7,8,9,10-tetrahydro-1-methyl 4H-pyrido [4',3':4,5] thieno [3,2-f] 1,2,4-triazolo [4,3-a] 1,4-diazepine] | – | – | 98.2 | – | 38.7
COc1ccc(S(=O)(=O)N2CCc3c(sc4c3C(c3ccccc3Cl)=NCc3nnc(C)n3-4)C2)c(OC)c1OC [Example 5, 6-(2-chlorophenyl)-9-(4,5,6-trimethoxy)phenylsulphonyl-7,8,9,10-tetrahydro-1-methyl 4H-pyrido [4',3':4,5] thieno [3,2-f] 1,2,4-triazolo [4,3-a] 1,4-diazepine] | – | – | 187 | 500 to 1000 | 28.1
Cc1nnc2n1-c1sc3c(c1C(c1ccccc1Cl)=NC2)CCN(S(=O)(=O)c1ccc(C(C)(C)C)cc1)C3 [Example 6, 6-(2-chlorophenyl)-9-(4-tert.butyl)phenylsuphonyl-7,8,9,10-tetrahydro-1-methyl 4H-pyrido [4',3':4,5] thieno [3,2-f] 1,2,4-triazolo [4,3-a] 1,4-diazepine] | – | – | 117 | – | 13.8
COc1ccc(S(=O)(=O)N2CCc3c(sc4c3C(c3ccccc3Cl)=NCc3nnc(C)n3-4)C2)cc1OC [Example 7, 6-(2-chlorophenyl)-9-(3,4-dimethoxy)phenylsulphonyl-7,8,9,10-tetrahydro-1-methyl 4H-pyrido [4',3':4,5] thieno [3,2-f] 1,2,4-triazolo [4,3-a] 1,4 diazepine] | – | – | 119 | – | 26.6
Cc1cc(C)c(S(=O)(=O)N2CCc3c(sc4c3C(c3ccccc3Cl)=NCc3nnc(C)n3-4)C2)c(C)c1 [Example 8, 6-(2-chlorophenyl)-9-(2,4,6-trimethyl)phenylsulphonyl-7,8,9,10-tetrahydro-1-methyl 4H-pyrido [4',3':4,5] thieno [3,2-f] 1,2,4-triazolo [4,3-a] 1,4-diazepine] | – | – | 25.1 | – | 30.5
COc1ccc(S(=O)(=O)N2CCc3c(sc4c3C(c3ccccc3Cl)=NCc3nnc(C)n3-4)C2)cc1 [Example 9, 6-(2-chlorophenyl)-9-(4-methoxy)phenylsulphonyl-7,8,9,10-tetrahydro-1-methyl 4H-pyrido [4',3':4,5] thieno [3,2-f] 1,2,4-triazolo [4,3-a] 1,4-diazepine] | – | – | 122 | – | 9.4
Cc1nnc2n1-c1sc3c(c1C(c1ccccc1Cl)=NC2)CCN(S(=O)(=O)c1ccc(Oc2ccc([N+](=O)[O-])cc2)cc1)C3 [Example 10, 6-(2-chlorophenyl)-9-[4-(4'-nitrophenoxy)]phenylsulphonyl-7,8,9,10-tetrahydro-1-methyl 4H-pyrido [4',3':4,5] thieno [3,2-f] 1,2,4-triazolo [4,3-a] 1,4-diazepine] | – | – | 1.41 | 500 to 1000 | 19.3
Cc1nnc2n1-c1sc3c(c1C(c1ccccc1Cl)=NC2)CCN(S(=O)(=O)c1cccs1)C3 [Example 11, 6-(2-chlorophenyl)-9-α-thienylphenylsulphonyl-7,8,9,10-tetrahydro-1-methyl 4H-pyrido [4',3':4,5] thieno [3,2-f] 1,2,4-triazolo [4,3-a] 1,4-diazepine] | – | – | 144 | – | 32.7
Cc1nnc2n1-c1sc3c(c1C(c1ccccc1Cl)=NC2)CCN(S(=O)(=O)c1ccco1)C3 [Example 12, 6-(2-chlorophenyl)-9-α-furylphenylsulphonyl-7,8,9,10-tetrahydro-1-methyl 4H-pyrido [4',3':4,5] thieno [3,2-f] 1,2,4-triazolo [4,3-a] 1,4-diazepine] | – | – | 110 | – | 21.4
Cc1nnc2n1-c1sc3c(c1C(c1ccccc1Cl)=NC2)CCN(S(=O)(=O)c1ccc[nH]1)C3 [Example 13, 6-(2-chlorophenyl)-9-(α-pyrrolyl)sulphonyl-7,8,9,10-tetrahydro-1-methyl-4H-pyrido [4',3':4,5] thieno [3,2-f] 1,2,4-triazolo [4,3-a] 1,4-diazepine] | – | – | 215 | – | 29.3
Cc1nnc2n1-c1sc3c(c1C(c1ccccc1Cl)=NC2)CCN(S(=O)(=O)c1cccc2cccnc12)C3 [Example 14, 6-(2-chlorophenyl)-9-(8-quinolyl)sulfonyl-7,8,9,10-tetrahydro-1-methyl-4H-pyrido-[4',3':4,5] thieno [3,2-f] 1,2,4-triazolo [4,3-a] 1,4-diazepine] | – | – | 65 | – | 17.4
Cc1nnc2n1-c1sc3c(c1C(c1ccccc1Cl)=NC2)CCN(S(=O)(=O)c1ccc2ccccc2c1)C3 [Example 15, 6-(2-chlorophenyl)-9-(2-naphtyl)sulphonyl-7,8,9,10-tetrahydro-1-methyl-4H-pyrido [4',3':4,5] thieno [3,2-f] 1,2,4-triazolo [4,3-a] 1,4-diazepine] | – | – | 431 | – | 34.8
Cc1nnc2n1-c1sc3c(c1C(c1ccccc1Cl)=NC2)CCN(S(=O)(=O)c1ccc(C(=O)O)cc1)C3 [Example 16, 6-(2-chlorophenyl)-9-(4-carboxy)phenylsulphonyl-7,8,9,10-tetrahydro-1-methyl-4H-pyrido [4',3':4,5] thieno [3,2-f] 1,2,4-triazolo [4,3-a] 1,4-diazepine] | – | – | 20.1 | – | 23.9
Cc1nnc2n1-c1sc3c(c1C(c1ccccc1Cl)=NC2)CCN(S(=O)(=O)c1ccc(Oc2ccc(C(=O)O)cc2)cc1)C3 [Example 17, 6-(2-chlorophenyl)-9-[4-(4'-(carboxy)phenyloxy)phenyl] sulphonyl-7,8,9,10-tetrahydro-1-methyl-4H-pyrido [4',3':4,5] thieno [3,2-f] 1,2,4-triazolo [4,3-a] 1,4-diazepine] | – | – | 472 | – | 7.8
COc1cc(OC)c(S(=O)(=O)N2CCc3c(sc4c3C(c3ccccc3Cl)=NCc3nnc(C)n3-4)C2)cc1SC [Example 18, 6-(2-chlorophenyl)-9-[5-methylthio 2,4-dimethoxy]phenyl sulphonyl-7,8,9,10-tetrahydro-1-methyl-4H-pyrido [4',3':4,5] thieno [3,2-f] 1,2,4-triazolo [4,3-a] 1,4-diazepine] | – | – | 22.2 | – | 10
COc1cc(OC)c(S(=O)(=O)N2CCc3c(sc4c3C(c3ccccc3Cl)=NCc3nnc(C)n3-4)C2)cc1S(C)(=O)=O [Example 19, 6-(2-chlorophenyl)-9-[5-mesyl 2,4-dimethoxy]phenylsulphonyl-7,8,9,10-tetrahydro-1-methyl-4H-pyrido [4',3':4,5] thieno [3,2-f] 1,2,4-triazolo [4,3-a] 1,4-diazepine] | – | – | 375 | – | 8.4
Cc1nnc2n1-c1sc3c(c1C(c1ccccc1Cl)=NC2)CCN(S(=O)(=O)C(C)C)C3 [Example 20, 6-(2-chlorophenyl)-9-isopropylsulfonyl-7,8,9,10-tetrahydro-1-methyl-4H-pyrido [4',3':4,5] thieno [3,2-f] 1,2,4-triazolo [4,3-a] 1,4-diazepine] | – | – | 517 | – | 47.5
